In general, pIC50 refers to −log10 of the IC50, conventionally taken in molar units.

pIC50: −log10 of the molar value.

The target of the assay is HIF PHD2 (Homo sapiens, UniProt Q9GZT9). As to the kind of experiment: PHD2 inhibition assay (TR-FRET, VCB-Eu detection of hydroxylated P564-HIF1α peptide). It counts as biochemical. The conditions noted are these: 2 nM PHD2, 100 nM P564-HIF1α peptide, 0.25 μM 2-oxoglutarate, 100 μM FeCl2, 2 mM ascorbic acid. As for the experimental part: Inhibition of HIF PHD2 activity was quantified utilizing the TR-FRET technology. HIF PHD2 catalyzes a hydroxyl modification on the proline residue of the P564-HIF1α peptide substrate (Biotin-DLEMLAPYIPMDDDFQL (SEQ ID NO: 7)) resulting in recognition and binding of the europylated Von Hippel-Lindau protein (pVHL), elongin B and elongin C heterotrimeric (VCB-Eu) complex.
Chain of HIF PHD2 (Q9GZT9 whole entry): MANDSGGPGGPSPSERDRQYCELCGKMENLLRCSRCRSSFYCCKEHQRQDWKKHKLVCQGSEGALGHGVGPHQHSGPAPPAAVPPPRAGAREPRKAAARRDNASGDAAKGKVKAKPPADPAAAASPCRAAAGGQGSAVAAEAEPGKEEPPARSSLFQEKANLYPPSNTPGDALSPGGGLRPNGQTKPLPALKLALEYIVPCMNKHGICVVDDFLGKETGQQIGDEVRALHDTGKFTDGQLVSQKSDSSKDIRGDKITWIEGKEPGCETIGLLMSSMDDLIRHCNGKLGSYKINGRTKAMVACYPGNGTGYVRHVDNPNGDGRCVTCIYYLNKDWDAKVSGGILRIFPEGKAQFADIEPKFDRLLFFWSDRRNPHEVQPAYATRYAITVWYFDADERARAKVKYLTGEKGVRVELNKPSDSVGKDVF
The PHD2 inhibition assay was executed by addition of freshly dissolved FeCl2 to 178.57 μM (100 μM final concentration) in PHD2 Reaction Buffer containing 30 mM MES, pH 6, 10 mM NaCl, 0.25% Brij-35, 0.01% BSA, and 1% DMSO. 28 μL of the iron solution and 2 μL of inhibitor compounds serially diluted in 100% DMSO (5% DMSO final) were added to black polypropylene 96-well microtiter plates. To that, 10 μL of 10 nM PHD2 (2 nM final) was added to all wells of the plate except for the 8 wells of column 12 (LO control), and allowed to incubate at room temperature on the shaker for one hour. Column 6 was the HI control containing PHD2 enzyme and 5% DMSO vehicle, but no inhibitor compound. To initiate the PHD2 enzymatic reaction, 10 μL of a solution containing 500 nM P564-HIF1α peptide (100 nM final), 10 mM ascorbic acid (2 mM final), and 1.25 μM 2-oxoglutarate (α-ketoglutarate; 0.25 μM final) in PHD2 Reaction Buffer was added to all wells of the plate and allowed to incubate on the shaker at room temperature for one hour.
The reaction was terminated by addition of 25 μL TR-FRET Buffer (50 mM TRIS-HCl, pH 9, 100 mM NaCl, 0.05% BSA, and 0.5% Tween-20) containing 150 mM succinate (product inhibitor; 50 mM final), 75 nM streptavidin-APC (25 nM final), and 7.5 nM VCB-Eu (2.5 nM final). The TR-FRET detection reagents were placed on a shaker for 1 hour to reach binding equilibrium before reading on the Discovery platform (PerkinElmer). Europium is excited at 315 nm and phosphoresces at 615 nm with a large Stoke's shift. APC, in turn, emits at 655 nm upon excitation at 615 nm. The TR-FRET signal is measured as the ratio of the APC 655 nm signal divided by the internal europium reference 615 nm emission signal.
The POC (percentage of control) was determined by comparing the signal from hydroxylated peptide substrate in the enzyme reaction containing inhibitor compound with that from PHD2 enzyme with DMSO vehicle alone (HI control), and no enzyme (LO control). POC was calculated using the formula: % control (POC)=(cpd−average LO)/(average HI−average LO)*100. Data (consisting of POC and inhibitor concentration in μM) was fitted to a 4-parameter equation (y=A+((B−A)/(1+((x/C)^D))), where A is the minimum y (POC) value, B is the maximum y (POC), C is the x (cpd concentration) at the point of inflection and D is the slope factor) using a Levenburg-Marquardt non-linear regression algorithm.
(In general: In TR-FRET formats the signal depends on donor and acceptor labels being close together.)
As for `C[C@@]1(c2ccc(Cl)cc2)C(=O)C(C(=O)NCC(=O)O)=C(O)c2cc(Cl)ccc21` (single isomer, unassigned) [Example 29], the negative logarithm of the IC50 (pIC50) was 6.30 to 7.00.
Under `C[C@]1(c2ccc(Cl)cc2)C(=O)C(C(=O)NCC(=O)O)=C(O)c2cc(Cl)ccc21` (single isomer, unassigned) [Example 30] stands 6.00 to 6.30.
The value for `CCC1(C)C(=O)C(C(=O)NCC(=O)O)=C(O)c2cc(Cl)ccc21` (single isomer, unassigned) [Example 78] was 6.30 to 7.00; that for `C[C@@]1(c2ccccc2)C(O)=C(C(=O)NCC(=O)O)C(=O)c2ccccc21` (single isomer, unassigned) [Example 114, N-(((4S)-3-Hydroxy-4-methyl-1-oxo-4-phenyl-1,4-dihydro-2-naphthalenyl)carbonyl)glycine or N-(((4R)-3-Hydroxy-4-methyl-1-oxo-4-phenyl-1,4-dihydro-2-naphthalenyl)carbonyl)glycine] was 6.30 to 7.00; that for `C[C@@]1(C#N)C(=O)C(C(=O)CCC(=O)O)=C(O)c2cc(Cl)ccc21` (single isomer, unassigned) [Example 120, 4-(7-chloro-4-cyano-1-hydroxy-4-methyl-3-oxo-3,4-dihydronaphthalen-2-yl)-4-oxobutanoic acid] was 5.00 to 6.00.
`C[C@@]1(C#N)C(=O)C(C(=O)CCC(=O)O)=C(O)c2cc(Cl)ccc21` (single isomer, unassigned) [Example 124, (R)-4-(7-chloro-4-cyano-1-hydroxy-4-methyl-3-oxo-3,4-dihydronaphthalen-2-yl)-4-oxobutanoic acid or (S)-4-(7-chloro-4-cyano-1-hydroxy-4-methyl-3-oxo-3,4-dihydronaphthalen-2-yl)-4-oxobutanoic acid] showed a pIC50 of 5.00 to 6.00.
Regarding `C[C@@]1(C#N)C(=O)C(C(=O)NCC(=O)O)=C(O)c2cc(F)ccc21` (single isomer, unassigned) [Example 135, (R)-2-(1-cyano-6-fluoro-4-hydroxy-1-methyl-2-oxo-1,2-dihydronaphthalene-3-carboxamido) acetic acid or (S)-2-(1-cyano-6-fluoro-4-hydroxy-1-methyl-2-oxo-1,2-dihydronaphthalene-3-carboxamido) acetic acid], the pIC50 is > 7.00.
Under `C[C@@]1(C#N)C(=O)C(C(=O)NCC(=O)O)=C(O)c2ccc(F)cc21` (single isomer, unassigned) [Example 137, (R)-2-(1-cyano-7-fluoro-4-hydroxy-1-methyl-2-oxo-1,2-dihydronaphthalene-3-carboxamido) acetic acid or (S)-2-(1-cyano-7-fluoro-4-hydroxy-1-methyl-2-oxo-1,2-dihydronaphthalene-3-carboxamido) acetic acid] stands > 7.00.
As to `CC1(C#N)C(=O)C(C(=O)NCC(=O)O)=C(O)c2ccc(Br)cc21` (single isomer, unassigned) [Example 139], the pIC50 is > 7.00.
For `CC1(C#N)C(=O)C(C(=O)NCC(=O)O)=C(O)c2ccc(Cl)cc21` (single isomer, unassigned) [Example 141], the pIC50 is > 7.00.
The value for `C[C@@]1(C#N)C(=O)C(C(=O)NCC(=O)O)=C(O)c2cc(F)c(F)cc21` (single isomer, unassigned) [Example 142, (R)-2-(1-cyano-6,7-difluoro-4-hydroxy-1-methyl-2-oxo-1,2-dihydronaphthalene-3-carboxamido) acetic acid or (S)-2-(1-cyano-6,7-difluoro-4-hydroxy-1-methyl-2-oxo-1,2-dihydronaphthalene-3-carboxamido) acetic acid] was > 7.00.
The value for `O=C(O)CNC(=O)C1=C(O)c2cc(Cl)ccc2C2(CCOCC2)C1=O` [Example 1, N-((6-Chloro-4-hydroxy-2-oxo-2′,3′,5′,6′-tetrahydro-2H-spiro[naphthalene-1,4′-pyran]-3-yl)carbonyl)glycine] was > 7.00.
The value for `CC1(C)C(=O)C(C(=O)NCC(=O)O)=C(O)c2cc(Cl)ccc21` [Example 2, N-((6-Chloro-4-hydroxy-1,1-dimethyl-2-oxo-naphthalen-3-yl)carbonyl)glycine] was > 7.00; that for `O=C(O)CNC(=O)C1=C(O)c2cc(C(F)(F)F)ccc2C2(CCOCC2)C1=O` [Example 3, N-((4-Hydroxy-2-oxo-6-(trifluoromethyl)-2′,3′,5′,6′-tetrahydro-2H-spiro[naphthalene-1,4′-pyran]-3-yl)carbonyl)glycine] was > 7.00.
Regarding `CC1(C)C(=O)C(C(=O)NCC(=O)O)=C(O)c2cc(C(F)(F)F)ccc21` [Example 4, N-((4-Hydroxy-1,1-dimethyl-2-oxo-6-(trifluoromethyl)-naphthalen-3-yl)carbonyl)glycine], the pIC50 was > 7.00.
Under `CC1(C)C(=O)C(C(=O)NCC(=O)O)=C(O)c2cc(-c3cccnc3)ccc21` [Example 5, N-((4-Hydroxy-1,1-dimethyl-2-oxo-6-(3-pyridinyl)-naphthalen-3-yl)carbonyl)glycine] stands > 7.00.
Under `Cc1ccc(-c2ccc3c(c2)C(O)=C(C(=O)NCC(=O)O)C(=O)C3(C)C)c(F)n1` [Example 6, N-((6-(2-Fluoro-6-methyl-3-pyridinyl)-4-hydroxy-1,1-dimethyl-2-oxo-naphthalen-3-yl)carbonyl)glycine] stands 6.30 to 7.00; under `Cc1cc(-c2ccc3c(c2)C(O)=C(C(=O)NCC(=O)O)C(=O)C3(C)C)ccn1` [Example 7, N-((4-Hydroxy-1,1-dimethyl-6-(2-methyl-4-pyridinyl)-2-oxo-naphthalen-3-yl)carbonyl)glycine], 6.30 to 7.00.
The molecule `Cc1ncccc1-c1ccc2c(c1)C(O)=C(C(=O)NCC(=O)O)C(=O)C2(C)C` [Example 8, N-((4-Hydroxy-1,1-dimethyl-6-(2-methyl-3-pyridinyl)-2-oxo-naphthalen-3-yl)carbonyl)glycine] showed a pIC50 of 6.30 to 7.00.
Molecule `CC1(C)C(=O)C(C(=O)NCC(=O)O)=C(O)c2cc(-c3cncc(F)c3)ccc21` [Example 9, N-((6-(5-Fluoro-3-pyridinyl)-4-hydroxy-1,1-dimethyl-2-oxo-naphthalen-3-yl)carbonyl)glycine] showed a pIC50 of 5.00 to 6.00.
As for `O=C(O)CNC(=O)C1=C(O)c2cc(Cl)ccc2[C@@]2(CCOC2)C1=O` [Example 10, N-(((3R)-6′-Chloro-4′-hydroxy-2′-oxo-4,5-dihydro-spiro[furan-3,1′-naphthalen]-3′-yl)carbonyl)glycine], the pIC50 was > 7.00.
Regarding `O=C(O)CNC(=O)C1=C(O)c2cc(Cl)ccc2[C@]2(CCOC2)C1=O` [Example 11, N-(((3S)-6′-Chloro-4′-hydroxy-2′-oxo-4,5-dihydro-spiro[furan-3,1′-naphthalen]-3′-yl)carbonyl)glycine], the pIC50 was > 7.00.
In the case of `O=C(O)CNC(=O)C1=C(O)c2cc(Cl)ccc2C2(CCOC2)C1=O` (stereo not drawn) [Example 12, N-((6′-Chloro-4′-hydroxy-2′-oxo-4,5-dihydro-2′H-spiro[furan-3,1′-naphthalen]-3′-yl)carbonyl)glycine], the pIC50 was > 7.00.
As to `CC1(C)C(=O)C(C(=O)NCC(=O)O)=C(O)c2cc(F)ccc21` [Example 13, N-((6-Fluoro-4-hydroxy-1,1-dimethyl-2-oxo-naphthalene-3-yl)carbonyl)glycine], the pIC50 is > 7.00.
Turning to `COc1cc2c(cc1Br)C1(CCOCC1)C(=O)C(C(=O)NCC(=O)O)=C2O` [Example 14, N-((7-Bromo-4-hydroxy-6-(methyloxy)-2-oxo-2′,3′,5′,6′-tetrahydro-spiro[naphthalene-1,4′-pyran]-3-yl)carbonyl)glycine], the pIC50 is > 7.00.
Under `CCC1(C)C(=O)C(C(=O)NCC(=O)O)=C(O)c2cc(Cl)ccc21` (stereo not drawn) [Example 15, N-((6-Chloro-1-ethyl-4-hydroxy-1-methyl-2-oxo-naphthalen-3-yl)carbonyl)glycine] stands 6.30 to 7.00; under `COc1ccc2c(c1)C(O)=C(C(=O)NCC(=O)O)C(=O)C21CCOCC1` [Example 16, N-((4-Hydroxy-6-(methyloxy)-2-oxo-2′,3′,5′,6′-tetrahydro-spiro[naphthalene-1,4′-pyran]-3-yl)carbonyl)glycine], > 7.00.

(Values after patent publication US7928139B2 (Amgen Inc., priority 2006, dated 2011).)
